Columns and labels:
Type in all cases: cell-based, rat
[1] = tested on: RBL-NL4 cells; assay: Luciferase expression on stimulation in RBL-NL4 cells; conditions: unsensitized, 250 μM, 37° C., 3 hours
Protocol: Luciferase expression of when stimulated with ionomycin, anti-human IgE antibody, or specific antigen is confirmed for each of cultures obtained by culturing the seven clones obtained in (2) above and RBL-NL4 cells. Specifically, the confirmation was carried out as follows.
On the day before the test for confirming luciferase expression when the stimulus was applied, the following operations were performed. […] The medium was placed in each well of a white 96-well plate made of plastic with a transparent bottom (product number: 165306, Thremo). Cells of each clone were then seeded at 5×10^4 cells/50 μL per well, and allowed to stand overnight in an incubator for sensitization. […]
After applying the stimulation, 50 μL/well of a substrate solution (One-Glo Luciferase Assay System, Promega) was added to each well and allowed to react for 5 minutes, and then the luminescence intensity was measured using a luminometer (GloMax, Promega).
In FIG. 7, black dots indicate the measured luciferase luminescence intensity (unit: CPS) (right axis: LUMINESCENCE (CPS)). […] The relative luminescence intensity is the relative luminescence intensity when the luminescence intensity of each clone when unstimulated is set to 1, and is shown on a log scale.

[2] = tested on: HuRa-40 cells; assay: IgE crosslinking-induced luciferase expression, inhibitor evaluation in HuRa-40 cells
Protocol: (§1) HuRa-40 cells and RS-ATL8 cells were prepared.
(§2) After washing the sensitized cells with PBS three times, […] was added and stimulated at 37° C. for 3 hours.
(§3) After the stimulation time had elapsed, Bright-Glo (Promega) substrate solution was added to each well in an amount of 50 μL/well, and reacted for 5 minutes at room temperature while shielding from light. After that, the luminescence intensity was measured with a microplate reader (GloMax, Promega).
(§4) A study similar to that described above was performed with cyclosporin A instead of omalizumab. Specifically, RS-ATL8 cells or HuRa-40 cells were added with cyclosporin A at a final concentration of 0 to 1 μg/mL, and, 30 minutes later, 50 ng/ml of human IgE was added to sensitize them overnight. After washing with PBS three times, the cells were stimulated with an anti-human IgE antibody for 3 hours, and Bright-Glo was added to measure luminescence.

[3] = tested on: RS-ATL8 cells; assay: IgE crosslinking-induced luciferase expression, inhibitor evaluation in RS-ATL8 cells
Protocol: as §1, §2, §3, §4

[4] = drug added 30 min before 50 ng/ml human IgE overnight sensitization, anti-human IgE stimulation 3 h, read from FIG. 17
[5] = omalizumab 100 μg/mL, fraction of the 0 μg/mL value

Compound | luciferase expression level compared to anti-human IgE antibody stimulation (no IgE and aIgE) [1] | change of luminescence intensity, concentration increased from 0.1 μg/mL to 1 μg/mL [2] | 50% inhibitory concentration (IC50) [2, 4] | luminescence intensity at 100 μg/mL compared to 0 μg/mL [2, 5] | change of luminescence intensity, concentration increased from 0.1 μg/mL to 1 μg/mL [3] | change of luminescence intensity, concentration increased from 1 μg/mL to 10 μg/mL [3] | 50% inhibitory concentration (IC50) [3, 4] | luminescence intensity at 100 μg/mL compared to 0 μg/mL [3, 5]
C[C@H](CCC(=O)O)C[C@H](C)C[C@H](C)C(=O)/C=C(\O)[C@H](C)C[C@H](C)C/C=C/[C@@H](C)[C@@H](O)[C@@H](C)[C@@H](O)C[C@@H]1CC[C@@](C)([C@H]2CC[C@@](C)([C@@H](C)O)O2)O1 [ionomycin] | greatly increased |  |  |  |  |  |  | 
Omalizumab |  | significant decrease in luminescence intensity | less than 1 μg/mL | less than 1/30 | decreased slightly | further decreased | greater than 1 μg/mL | about ¼

Reference: patent US20240309389A1, “Chimeric FCeRI a-Chain Gene, Chimeric FCeRI a-Chain Protein, Cells, Analysis Kit and Analysis Method” (TEIKYO HEISEI UNIVERSITY, priority 2021, published 2024)
